{"source": "patent US20070244200A1", "about": "“Method for triggering angiogenic response” (priority 2006, published 2007)", "test_system": "rabbit aortic endothelial cells (RAEC)", "test": "Cord formation on Matrigel (in vitro angiogenesis assay)", "assay_type": "cell-based", "conditions": "18-24 h; for Percent Increase in Cord length, Set I / Percent Increase in Cord length, Set II / Percent Increase in Cord length, Set III: individual picture scores; for Percent Increase in Cord length, Mean: mean of 18 scores", "description": "In carrying this invention, materials needed in this example include commercially available items as follows: a 96 Well Plate, for example, flat bottom 96 well plate (Falcon 353072); Media-BM-2 (Clonetics CC-3162), DMEM (Gibco Cat#11960044); Matrigel-Beckton Dickinson (Cat#40234); Cells; HUVEC (2×10^6/ml) in EBM-2 in EBM-2; and Image Analysis-Image-Pro Plus In this example, the assay is performed under hood is, a Laminar Flow Hood. Frozen Matrigel (Beckton Dickinson 40234) is placed overnight on ice to thaw. Then, a concentration of matrigel is adjusted to 10 mg/ml using DMEM media. An ice cold 96 well plate is then placed on ice in a flat dish. Using an ice cold tip, gently layer 60 μl of matrigel (10 mg/ml; kept on ice) in each well. Gently tap the plate so that matrigel is evenly distributed in each well. The assay thereafter involves the following steps and protocols of: Removing the ice under the plate and incubate the plate for 15 min at room temperature; transfer the plate to a 37° C. incubator for at least 30 min for the Matrigel to polymerize; prepare methanandamide at 2X the desired concentration in culture media; harvest RAEC (rabbit aortic endothelial cells) in culture media and adjust the cell density to 2×10^5/ml; mix 500 μl of drug with 500 μl of cell suspension and place 200 μl of this suspension in duplicate wells on polymerized matrigel (being cautious to not touch matrigel with the tip and to dispense cells very gently and slowly on the matrigel to avoid damage to matrigel layer); incubate the compound concentration in a 37° C. humidified incubator for 18-24 h observe condition of cords under a microscope.; take at least three pictures (10 X) from different fields from each well (or six pictures from duplicate wells); count number of junctions and tube length (mm) from each picture using Image Pro Image Analysis System; and analyze the data.\nIn accordance with a preferred embodiment of the present invention, the effect of methanandamide on rabbit aortic endothelial cells (RAEC) was tested for its ability to induce cord formation on matrigel. This process entails an accepted in vitro assay for angiogenesis. The procedures involve analyses with three different concentrations of methanandamide compound and repeated the experiments three different times in duplicate. As mentioned earlier above in the protocol, the 3 pictures from each well were taken. Therefore, for each concentration (data point) we have 18 scores. The analysis entails the measure of two parameters: (1) cord length; and (2) cord junction number.\nIn FIG. 1, there is shown representations for eighteen (18) scores of data points for each concentration of methanandamide compound analyzed. The scores indicated for each concentration of methanandamide resulted from three different concentrations of methanandamide, i.e. 10 nM, 50 nM, and 100 nM. Three (3) pictures taken from each field or well (Six (6) pictures for duplicate wells). Each treatment or analysis was done in duplicate in 3 separate sets, i.e., Set I, Set II, and Set III. Therefore, for each concentration data point has eighteen (18) scores (3×2×3=18 data points).", "note": "“And” between values parts separate entries of the source, which are not always exact repeats. Equal entries are not always repeated.", "data": [{"smiles": "CCCCC/C=C\\C/C=C\\C/C=C\\C/C=C\\CCCC(=O)N[C@H](C)CO", "note": "[Methanandamide, methyl arachidonyl ethanolamide]", "values": [{"measurement": "Percent Increase in Cord length, Set I", "setting": "Methanandamide 10 nM", "result": "12% (2×) and 11% and 9% and 13% and 10%"}, {"measurement": "Percent Increase in Cord length, Set II", "setting": "Methanandamide 10 nM", "result": "16% and 21% and 14% and 18% and 13% and 12%"}, {"measurement": "Percent Increase in Cord length, Set III", "setting": "Methanandamide 10 nM", "result": "14% and 10% and 17% (2×) and 13% and 15%"}, {"measurement": "Percent Increase in Cord length, Mean", "setting": "Methanandamide 10 nM", "result": 14, "unit": "%"}, {"measurement": "Percent Increase in Cord length, Set I", "setting": "Methanandamide 50 nM", "result": "17% and 22% and 25% and 32% (2×) and 19%"}, {"measurement": "Percent Increase in Cord length, Set II", "setting": "Methanandamide 50 nM", "result": "17% and 26% and 22% (2×) and 28% and 18%"}, {"measurement": "Percent Increase in Cord length, Set III", "setting": "Methanandamide 50 nM", "result": "34% and 25% and 30, 30, Percent (2×) and 26% and 35%"}, {"measurement": "Percent Increase in Cord length, Mean", "setting": "Methanandamide 50 nM", "result": 25, "unit": "%"}, {"measurement": "Percent Increase in Cord length, Set I", "setting": "Methanandamide 100 nM", "result": "45% and 42% (2×) and 39% and 47% and 40%"}, {"measurement": "Percent Increase in Cord length, Set II", "setting": "Methanandamide 100 nM", "result": "37% and 41% and 44% (2×) and 32% and 34%"}, {"measurement": "Percent Increase in Cord length, Set III", "setting": "Methanandamide 100 nM", "result": "38% and 42% and 44% and 47% and 36% and 34%"}, {"measurement": "Percent Increase in Cord length, Mean", "setting": "Methanandamide 100 nM", "result": 40, "unit": "%"}]}]}
